Experimental data reported in the supplement of paper PMC10307832.

Assays:
Assay in all cases: relative viability (nuclei count vs DMSO), 5 days (fraction); higher = more cells survive
[1] = compound: O=S(=O)(c1ccccc1)N(CC(F)(F)F)c1ccc(C(O)(C(F)(F)F)C(F)(F)F)cc1 + CC(=O)c1c(C)c2cnc(Nc3ccc(N4CCNCC4)cn3)nc2n(C2CCCC2)c1=O [Palbociclib] (partner 0.5 µM)
How it was run: (§1)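 After 5 days of treatment, lung cancer cells in 1536-well plates were fixed and stained in a single step (final 0.05% Triton X-100, 1% formaldehyde, 1 ug/ml Hoechst) and their nuclei counted on 4× images. Treatment had been applied by pin tool the day after seeding as one drug alone or as a fixed anchor-drug dose with five library-drug doses (not always all listed) in √10 steps. Relative viability is the nuclei count of treated wells divided by that of vehicle wells, and values are medians of duplicate plates.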

[2] = compound: O=S(=O)(c1ccccc1)N(CC(F)(F)F)c1ccc(C(O)(C(F)(F)F)C(F)(F)F)cc1 + NC(=O)Nc1cc(-c2cccc(F)c2)sc1C(=O)N[C@H]1CCCNC1 [AZD7762] (partner 0.2 µM)
How it was run: as §1

[3] = compound: C1=CC2=C(C=CC(=C2)C=C3C(=O)NC(=NCC4=CC=CS4)S3)N=C1 [RO-3306] + CS(=O)(=O)N1CCN(Cc2cc3nc(-c4cccc5[nH]ncc45)nc(N4CCOCC4)c3s2)CC1 [Pictilisib] (partner 1 µM)
How it was run: as §1

[4] = compound: C1=CC2=C(C=CC(=C2)C=C3C(=O)NC(=NCC4=CC=CS4)S3)N=C1 [RO-3306] + O=C(c1cc(Cc2n[nH]c(=O)c3ccccc23)ccc1F)N1CCN(C(=O)C2CC2)CC1 [Olaparib] (partner 8 µM)
How it was run: as §1

[5] = compound: O=S(=O)(c1ccccc1)N(CC(F)(F)F)c1ccc(C(O)(C(F)(F)F)C(F)(F)F)cc1 + O=C(c1cc(Cc2n[nH]c(=O)c3ccccc23)ccc1F)N1CCN(C(=O)C2CC2)CC1 [Olaparib] (partner 8 µM)
How it was run: as §1

| Cell Line | relative viability ([1]; first compound 0.8 µM) | relative viability ([1]; first compound 2.53 µM) | relative viability ([1]; first compound 8 µM) | relative viability ([2]; first compound 0.8 µM) | relative viability ([2]; first compound 2.53 µM) | relative viability ([2]; first compound 8 µM) | relative viability ([3]; first compound 0.01 µM) | relative viability ([3]; first compound 0.03162 µM) | relative viability ([3]; first compound 0.1 µM) | relative viability ([3]; first compound 0.3162 µM) | relative viability ([3]; first compound 1 µM) | relative viability ([4]; first compound 0.01 µM) | relative viability ([4]; first compound 0.03162 µM) | relative viability ([4]; first compound 0.1 µM) | relative viability ([4]; first compound 0.3162 µM) | relative viability ([4]; first compound 1 µM) | relative viability ([5]; first compound 0.8 µM) | relative viability ([5]; first compound 2.53 µM) | relative viability ([5]; first compound 8 µM) |
| --- | --- | --- | --- | --- | --- | --- | --- | --- | --- | --- | --- | --- | --- | --- | --- | --- | --- | --- | --- |
| NCI-H441 | 0.212 | 0.16 | 0.211 | 1.34 | 1.2 | 0.996 | 0.491 | 0.332 | 0.387 | 0.607 | 0.451 | 0.641 | 0.461 | 0.592 | 0.581 | 0.443 | 0.657 | 0.469 | 0.654 |
| HCC-366 | 0.649 | 0.379 | 0.239 | 0.277 | 0.317 | 0.14 | 0.118 | 0.0988 | 0.149 | 0.214 | 0.106 | 0.384 | 0.281 | 0.366 | 0.383 | 0.393 | 0.414 | 0.37 | 0.281 |
| NCI-H2085 | 0.432 | 0.431 | 0.413 | 0.941 | 0.799 | 0.913 | 0.388 | 0.467 | 0.467 | 0.492 | 0.479 | 0.699 | 0.685 | 0.811 | 0.714 | 0.757 | 0.745 | 0.686 | 0.742 |
| SW 1573 | 0.449 | 0.323 | 0.356 |  |  |  | 0.536 | 0.406 | 0.534 | 0.534 | 0.39 | 0.492 | 0.483 | 0.432 | 0.444 | 0.442 | 0.527 | 0.43 | 0.514 |
| NCI-H1299 |  |  |  |  |  |  | 0.873 | 0.854 | 0.833 | 0.796 | 0.649 | 0.993 | 0.99 | 0.988 | 0.997 | 0.97 | 0.961 | 0.949 | 0.96 |
| H3255 | 0.319 | 0.313 | 0.28 | 0.787 | 0.666 | 0.76 | 0.556 | 0.486 | 0.481 | 0.491 | 0.56 | 0.608 | 0.513 | 0.595 | 0.558 | 0.505 | 0.533 | 0.488 | 0.439 |
| NCI-H2023 | 0.335 | 0.328 | 0.27 |  |  |  | 0.168 | 0.241 | 0.225 | 0.219 | 0.167 | 0.469 | 0.437 | 0.422 | 0.463 | 0.379 | 0.601 | 0.48 | 0.441 |
| HOP-62 | 0.408 | 0.3 | 0.355 | 0.649 | 0.517 | 0.598 | 0.898 | 0.564 | 0.759 | 0.686 | 0.471 | 0.606 | 0.476 | 0.168 | 0.406 | 0.678 | 0.226 | 0.49 | 0.392 |
| LC-2-ad | 0.53 | 0.501 | 0.422 | 0.89 | 0.779 | 0.702 | 0.43 | 0.275 | 0.377 | 0.488 | 0.428 | 0.703 | 0.663 | 0.719 | 0.693 | 0.712 | 0.689 | 0.675 | 0.674 |
| NCI-H2347 | 0.42 | 0.374 | 0.395 | 0.942 | 0.724 | 0.742 | 0.715 | 0.477 | 0.642 | 0.881 | 0.668 | 0.598 | 0.596 | 0.565 | 0.464 | 0.594 | 0.566 | 0.522 | 0.572 |
| NCI-H1651 | 0.555 | 0.503 | 0.5 | 0.471 | 0.449 | 0.39 | 0.598 | 0.359 | 0.574 | 0.601 | 0.634 | 0.177 | 0.168 | 0.181 | 0.174 | 0.177 | 0.178 | 0.206 | 0.176 |
| COR-L23 | 0.332 | 0.269 | 0.285 |  |  |  | 0.816 |  | 0.835 | 0.77 | 0.67 | 0.414 | 0.364 | 0.456 | 0.34 | 0.322 | 0.357 | 0.35 | 0.34 |
| ABC-1 |  | 0.656 | 0.714 | 0.709 | 1.64 | 1.2 | 0.688 | 0.725 | 0.712 | 0.732 | 0.866 | 0.785 | 1.17 | 0.833 | 0.61 | 0.771 |  | 0.763 | 0.638 |
| NCI-H1755 | 0.471 | 0.46 | 0.464 | 0.468 | 0.421 | 0.485 | 0.523 | 0.376 | 0.424 | 0.457 | 0.473 | 0.973 | 0.902 | 0.867 | 0.839 | 0.953 | 0.918 | 0.865 | 0.849 |
| NCI-H2170 | 0.433 | 0.353 | 0.356 | 0.994 | 0.817 | 0.961 | 0.292 | 0.303 | 0.305 | 0.312 | 0.334 | 0.658 | 0.589 | 0.631 | 0.546 | 0.509 | 0.666 | 0.563 | 0.609 |
| NCI-H23 | 0.484 | 0.526 | 0.478 | 0.22 | 0.293 | 0.246 | 0.507 | 0.468 | 0.433 | 0.451 | 0.433 | 0.333 |  | 0.25 | 0.307 | 0.268 | 0.31 | 0.23 | 0.302 |
| NCI-H1395 | 0.642 | 0.627 | 0.603 | 0.319 | 0.416 | 0.429 | 0.589 | 0.911 | 0.547 | 0.644 | 0.753 | 0.503 | 0.488 | 0.491 | 0.425 | 0.408 | 0.409 | 0.458 | 0.467 |
